These results are taken from US9776972B2, “Pyrazole derivatives as arginine methyltransferase inhibitors and uses thereof” (priority 2013, dated 2017).

Like-named read-outs stand apart in the source and are kept apart here.

Assay [1] relates to mono-methyl arginine in RKO cells. Briefly: RKO Methylation Assay, In Cell Western (ICW) for mono-methyl arginine and DNA content. It counts as cell-based. To be noted: Homo sapiens, RKO, 72 h, RKO cells, 72 hours, mono-methyl arginine, percent activation. From the text:
RKO adherent cells were purchased from ATCC (American Type Culture Collection), Manassas, Va., USA. DMEM/Glutamax medium, penicillin-streptomycin, heat inactivated fetal bovine serum, 0.05% trypsin and D-PBS were purchased from Life Technologies, Grand Island, N.Y., USA. Odyssey blocking buffer, 800CW goat anti-rabbit IgG (H+L) antibody, and Licor Odyssey infrared scanner were purchased from Licor Biosciences, Lincoln, Nebr., USA. Mono-methyl arginine antibody was purchased from Cell Signaling Technology, Danvers, Mass., USA. Methanol was purchased from VWR, Franklin, Mass., USA. 10% Tween 20 was purchased from KPL, Inc., Gaithersburg, Md., USA. DRAQ5 was purchased from Biostatus Limited, Leicestershire, UK.
RKO adherent cells were maintained in growth medium (DMEM/Glutamax medium supplemented with 10% v/v heat inactivated fetal bovine serum and 100 units/mL penicillin-streptomycin) and cultured at 37° C. under 5% CO2.
Cell Treatment, in Cell Western (ICW) for Detection of Mono-Methyl Arginine and DNA Content.
RKO cells were seeded in assay medium at a concentration of 20,000 cells per mL to a poly-D-lysine coated 384 well culture plate (BD Biosciences 356697) with 50 μL per well. Compound (100 nL) from a 96-well source plate was added directly to 384 well cell plate. Plates were incubated at 37° C., 5% CO2 for 72 hours. After three days of incubation, plates were brought to room temperature outside of the incubator for ten minutes and blotted on paper towels to remove cell media. 50 μL of ice cold 100% methanol was added directly to each well and incubated for 30 min at room temperature. After 30 min, plates were transferred to a Biotek EL406 plate washer and washed 2 times with 100 μL per well of wash buffer (1×PBS). Next 60 μL per well of Odyssey blocking buffer (Odyssey Buffer with 0.1% Tween 20 (v/v)) were added to each plate and incubated 1 hour at room temperature. Blocking buffer was removed and 20 μL per well of primary antibody was added (mono-methyl arginine diluted 1:200 in Odyssey buffer with 0.1% Tween 20 (v/v)) and plates were incubated overnight (16 hours) at 4° C. Plates were washed 5 times with 100 μL per well of wash buffer. Next 20 μL per well of secondary antibody was added (1:200 800CW goat anti-rabbit IgG (H+L) antibody, 1:1000 DRAQ5 (Biostatus limited) in Odyssey buffer with 0.1% Tween 20 (v/v)) and incubated for 1 hour at room temperature. The plates were washed 5 times with 100 μL per well wash buffer then 2 times with 100 μL per well of water. Plates were allowed to dry at room temperature then imaged on the Licor Odyssey machine which measures integrated intensity at 700 nm and 800 nm wavelengths. Both 700 and 800 channels were scanned.
First, the ratio for each well was determined by:
Each plate included fourteen control wells of DMSO only treatment (minimum activation) as well as fourteen control wells for maximum activation treated with 20 μM of a reference compound. The average of the ratio values for each control type was calculated and used to determine the percent activation for each test well in the plate. Reference compound was serially diluted three-fold in DMSO for a total of nine test concentrations, beginning at 20 μM. Percent activation was determined and EC30 curves were generated using triplicate wells per concentration of compound.

A further assay deals with T1, human PRMT6 (Homo sapiens, UniProt Q96LA8).
T1 construct: Flag-PRMT6-His; made in house; host or cells: HEK 293F cells (BacMam baculovirus)
Briefly: PRMT6 Biochemical Assay (3H-SAM Flashplate, peptide substrate). From the text:
S-adenosylmethionine (SAM), S-adenosylhomocysteine (SAH), bicine, Tween20, dimethylsulfoxide (DMSO), bovine skin gelatin (BSG), sodium butyrate and Tris(2-carboxyethyl)phosphine hydrochloride solution (TCEP) were purchased from Sigma-Aldrich at the highest level of purity possible. ^3H-SAM was purchase from American Radiolabeled Chemicals with a specific activity of 80 Ci/mmol. 384-well streptavidin Flashplates were purchased from PerkinElmer.
Peptide representative of human histone H4 residues 36-50 was synthesized with an N-terminal linker-affinity tag motif and a C-terminal amide cap by 21st Century Biochemicals.
The amplified gene was subcloned into pFastBacMam (Viva Biotech).
Recombinant baculovirus were generated according to Bac-to-Bac kit instructions (Life Technologies). […] Infections were carried out at 37° C. for 48 hours, harvested by centrifugation, and stored at −80° C. for purification.
Column was washed with 20 mM imidazole in the same buffer and Flag-PRMT6-His was eluted with 150 mM imidazole. […] Flag-PRMT6-His was eluted with 200 ug/ml FLAG peptide in the same buffer. Pooled fractions were dialysed in 20 mM Tris, 150 mM NaCl, 10% glycerol and 5 mM β-mercaptoethanol, pH 7.8.
General Procedure for PRMT6 Enzyme Assays on Peptide Substrates.
(§1) The assays were all performed in a buffer consisting of 20 mM Bicine (pH=7.6), 1 mM TCEP, 0.005% BSG, and 0.002% Tween 20, prepared on the day of use. […] DMSO (1 ul) was added to Columns 11, 12, 23, 24, rows A-H for the maximum signal control and 1 ul of SAH, a known product and inhibitor of PRMT6, was added to columns 11, 12, 23, 24, rows I-P for the minimum signal control. A cocktail (40 ul) containing the PRMT6 enzyme was added by Multidrop Combi (Thermo-Fisher). The compounds were allowed to incubate with PRMT6 for 30 min at room temperature, then a cocktail (10 ul) containing SAM and peptide was added to initiate the reaction (final volume=51 ul). […] The assays were stopped by the addition of non-radiolabeled SAM (10 ul) to a final concentration of 400 uM, which dilutes the ^3H-SAM to a level where its incorporation into the peptide substrate is no longer detectable. 50 ul of the reaction in the 384-well polypropylene plate was then transferred to a 384-well Flashplate and the biotinylated peptides were allowed to bind to the streptavidin surface for at least 1 hour before being washed once with 0.1% Tween20 in a Biotek ELx405 plate washer. The plates were then read in a PerkinElmer TopCount plate reader to measure the quantity of ^3H-labeled peptide bound to the Flashplate surface, measured as disintegrations per minute (dpm) or alternatively, referred to as counts per minute (cpm).
(§2) Where dpm=disintegrations per minute, cmpd=signal in assay well, and min and max are the respective minimum and maximum signal controls.
(§3) Where top and bottom are the normally allowed to float, but may be fixed at 100 or 0 respectively in a 3-parameter fit. The Hill Coefficient normally allowed to float but may also be fixed at 1 in a 3-parameter fit. Y is the % inhibition and X is the compound concentration.

The target of the next assay is T2, human PRMT1 (Homo sapiens, UniProt Q99873).
T2 construct: GST-tagged PRMT1; made in house; host or cells: High Five insect cells (baculovirus)
Briefly: PRMT1 Biochemical Assay (3H-SAM Flashplate, peptide substrate). To be noted: single experiment or average of multiple experiments.
Text: S-adenosylmethionine (SAM), S-adenosylhomocysteine (SAH), bicine, Tween20, dimethylsulfoxide (DMSO), bovine skin gelatin (BSG), and Tris(2-carboxyethyl)phosphine hydrochloride solution (TCEP) were purchased from Sigma-Aldrich at the highest level of purity possible. ^3H-SAM was purchase from American Radiolabeled Chemicals with a specific activity of 80 Ci/mmol. 384-well streptavidin Flashplates were purchased from PerkinElmer.
Recombinant baculovirus were generated according to Bac-to-Bac kit instructions (Life Technologies). […] Infections were carried out at 27° C. for 48 hours, harvested by centrifugation, and stored at −80° C. for purification.
GST-tagged PRMT1 was eluted with 50 mM Tris, 2 mM glutathione, pH 7.8, dialysed in buffer A and concentrated to 1 mg/mL.
General Procedure for PRMT1 Enzyme Assays on Peptide Substrates.
as §1, with “PRMT1,” for “PRMT6,”, “PRMT1” for “PRMT6”, “300” for “400”
as §2, §3

[2] abbreviates: single experiment or average of multiple experiments, read-out: EC30 (In Cell Western data, Numerical).
Where [3] appears, read: Biochemical IC50 PRMT6, single experiment or average of multiple experiments.
Where [4] appears, read: single experiment or average of multiple experiments, read-out: Biochemical IC50 PRMT6.
The mark [5] stands for this setting: class symbols, read-out: EC30 (In Cell Western data).

T1 sequence (Q96LA8 with tags, fused parts or gaps): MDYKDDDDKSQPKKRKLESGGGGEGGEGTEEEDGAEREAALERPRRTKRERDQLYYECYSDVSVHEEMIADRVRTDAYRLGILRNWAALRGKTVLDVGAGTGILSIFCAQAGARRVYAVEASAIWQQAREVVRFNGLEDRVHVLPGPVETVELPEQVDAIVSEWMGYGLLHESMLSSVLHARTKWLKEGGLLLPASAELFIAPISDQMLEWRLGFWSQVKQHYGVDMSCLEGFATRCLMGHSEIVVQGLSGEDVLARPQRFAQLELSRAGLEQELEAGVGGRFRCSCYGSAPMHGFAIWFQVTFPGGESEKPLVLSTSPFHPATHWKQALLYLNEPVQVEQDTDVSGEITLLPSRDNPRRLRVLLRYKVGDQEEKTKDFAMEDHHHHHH
T2 sequence (Q99873 with tags, fused parts or gaps): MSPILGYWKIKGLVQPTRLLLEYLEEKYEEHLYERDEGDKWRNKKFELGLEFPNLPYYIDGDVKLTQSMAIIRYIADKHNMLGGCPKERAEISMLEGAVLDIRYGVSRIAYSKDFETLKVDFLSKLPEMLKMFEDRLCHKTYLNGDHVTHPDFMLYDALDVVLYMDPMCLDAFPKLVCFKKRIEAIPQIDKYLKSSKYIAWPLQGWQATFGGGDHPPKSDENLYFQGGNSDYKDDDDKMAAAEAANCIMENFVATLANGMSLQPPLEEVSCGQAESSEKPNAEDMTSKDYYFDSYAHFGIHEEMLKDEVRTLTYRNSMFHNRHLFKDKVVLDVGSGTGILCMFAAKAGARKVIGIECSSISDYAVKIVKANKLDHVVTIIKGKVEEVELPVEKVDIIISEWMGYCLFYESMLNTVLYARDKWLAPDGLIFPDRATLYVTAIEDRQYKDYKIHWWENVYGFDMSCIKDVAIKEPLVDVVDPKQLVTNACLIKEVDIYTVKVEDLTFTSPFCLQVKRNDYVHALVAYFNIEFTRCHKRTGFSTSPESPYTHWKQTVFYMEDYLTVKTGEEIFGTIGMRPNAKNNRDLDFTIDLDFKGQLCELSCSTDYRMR

The term EC30 denotes the concentration needed for an effect of 30%. As usually defined, the IC50 is the concentration that inhibits the measured activity by half. For the compound `CN(CCN1CCCC1)Cc1c[nH]nc1-c1ccc(C#N)cc1` [Compound 139], the EC30 in assay [1] (setting [2]) is > 20 µM. The IC50 at human PRMT6 (Biochemical IC50 PRMT6) and against human PRMT6 (setting [3]) was > 10 µM each time.
Consider `COCCn1cnc(-c2ccc(C#N)cc2)c1CN(C)CCN` [Compound 223], for which the EC30 in assay [1] (setting [2]) is > 20 µM. Further, the IC50 at human PRMT6 (Biochemical IC50 PRMT6) and against human PRMT6 (setting [3]) was > 10 µM in each case.
Take `CN(CCN)Cc1cn(CC2COC2)nc1-c1ccc(F)cc1` [Compound 79]: the EC30 in assay [1] (setting [2]) is > 20 µM. The half-inhibitory concentration (IC50) on human PRMT6 (Biochemical IC50 PRMT6) and on human PRMT6 (setting [3]) was > 10 µM each time.
As for `CNCCN(C)Cc1c[nH]nc1-c1ccc(Oc2cccc(C(=O)N(C)C)c2)cc1` [Compound 264], the EC30 in assay [1] (setting [2]) amounted to 3.52 µM. The same compound gave an IC50 at human PRMT6 (setting [3]) of 0.00318 µM.
Turning to `CNCCN(C)Cc1cn[nH]c1-c1ccc(OC(C)C)c(Cl)c1` [Compound 201], in assay [1] (setting [2]), the EC30 came to 0.255 µM. For the same compound, the IC50 against human PRMT6 (setting [3]) is 0.00924 µM.
Regarding `CNCCN(C)Cc1c[nH]nc1-c1ccc(OC(C)C)cc1` [Compound 19, N^1-((3-(4-isopropoxyphenyl)-1H-pyrazol-4-yl)methyl)-N^1,N^2-dimethylethane-1,2-diamine], in assay [1] (setting [2]), the EC30 was 0.067 µM. In addition, the IC50 against human PRMT6 (setting [3]) was determined as 0.0106 µM.
For `CN(CCN)Cc1c[nH]nc1-c1ccc(N2CCN(C(=O)Cc3ccccc3)CC2)cc1` [Compound 190], the 30% effect concentration (EC30) in assay [1] (setting [2]) was 8.39 µM. Also, on human PRMT6 (setting [4]), the IC50 was found to be 0.0201 µM.
Turning to `CNCCN(C)Cc1n[nH]cc1-c1ccc(Oc2cccc(C(=O)N(C)C)c2)cc1` [Compound 269], in assay [1] (setting [2]), the EC30 was found to be 14.9 µM. In addition, the IC50 against human PRMT6 (setting [3]) came to 0.00273 µM.
Consider `CN(CCN)Cc1cn(CC(O)CO)nc1-c1ccc(F)cc1` (stereo not drawn) [Compound 76], for which the IC50 was 6.39 µM on human PRMT1 and 2.73 µM at human PRMT6 (setting [3]).
On to `CNCCN(C)Cc1n[nH]cc1-c1ccc(Oc2ccccc2C(=O)NC)cc1` [Compound 278], for which the EC30 in assay [1] (setting [2]) was 8.23 µM. In addition, it took 0.00517 µM to reach half-maximal inhibition at human PRMT6 (setting [3]) (IC50).
For `CNCCN(C)Cc1c[nH]nc1-c1ccc(Oc2ccccc2)c(C#N)c1` [Compound 234], the IC50 is 0.00775 µM against human PRMT1 and 0.00474 µM on human PRMT6 (setting [3]).
As to `CN(CCN)Cc1c(-c2ccc(C#N)cc2)cnn1C` [Compound 84], the IC50 on human PRMT6 (Biochemical IC50 PRMT6) and against human PRMT6 (setting [3]) was > 10 µM in each case.
As to `CN(CCN)Cc1cn(CC2CCOCC2)nc1-c1ccc(F)cc1` [Compound 128], the figures for the IC50 at human PRMT1 and against human PRMT6 (setting [3]) were 6.5 µM and 2.37 µM, respectively.
Regarding `CN(CCN)Cc1c[nH]nc1-c1ccc(OCCCN2CCOCC2)cc1` [Compound 186], in assay [1] (setting [2]), the EC30 turned out to be 12.8 µM. Moreover, it took 0.0133 µM to reach half-maximal inhibition at human PRMT6 (setting [3]) (IC50).
`COCCn1ncc(CN(C)CCN(C)C)c1-c1ccc(F)cc1` [Compound 64]: the IC50 against human PRMT6 (setting [3]) was 1.57 µM.
For the compound `CCOc1ccc(-c2n[nH]cc2CN(C)CCNC)cc1` [Compound 294], the EC30 in assay [1] (setting [5]) is < 3 µM; in assay [1] (setting [2]) it was 0.224 µM. For the same compound, the IC50 against human PRMT6 (Biochemical IC50 PRMT6) was < 0.1 µM; against human PRMT6 (setting [3]), 0.0246 µM.
In the case of `CN(CCN)Cc1cnn(CC2COC2)c1-c1ccc(F)cc1` [Compound 80], the concentration for an effect of 30% (EC30) in assay [1] (setting [2]) was > 20 µM. The IC50 against human PRMT6 (Biochemical IC50 PRMT6) and on human PRMT6 (setting [3]) was > 10 µM each time.
With `CNCCN(C)Cc1cnn(C)c1-c1ccc(OC(C)C)c(Cl)c1` [Compound 220, N^1-((5-(3-chloro-4-isopropoxyphenyl)-1-methyl-1H-pyrazol-4-yl)methyl)-N^1,N^2-dimethylethane-1,2-diamine], the EC30 in assay [1] (setting [2]) stood at 0.211 µM. In addition, the IC50 on human PRMT6 (setting [4]) is 0.0231 µM.
In the case of `COCCn1cc(CN(C)CCN(C)C)c(-c2ccc(F)cc2)n1` [Compound 61], the IC50 at human PRMT6 (Biochemical IC50 PRMT6) and against human PRMT6 (setting [3]) was > 10 µM throughout.
`CCC(CO)Oc1ccc(-c2n[nH]cc2CN(C)CCNC)cc1` (stereo not drawn) [Compound 287]: the EC30 in assay [1] (setting [5]) is < 3 µM; in assay [1] (setting [2]), 0.202 µM. Further, the IC50 is < 0.1 µM against human PRMT6 (Biochemical IC50 PRMT6) and 0.0248 µM at human PRMT6 (setting [4]).
In the case of `CN(CCN)Cc1c[nH]nc1-c1ccc(Oc2ccccc2)cc1` [Compound 200], the EC30 in assay [1] (setting [2]) turned out to be 0.596 µM.
